In patent US6900193B1, “Structural modification of 19-norprogesterone I: 17-α-substituted-11-β-substituted-4-aryl and 21-substituted 19-norpregnadienedione as new antiprogestational agents” (The United States of America as represented by the …, priority 1996, dated 2005):
“Also recorded” adds a separate entry of the source. Read-outs that look alike come from different tables or passages of the source.

Legend:
[1] = Lability to base under reverse-phase HPLC conditions; type: physicochemical; details: MeOH/H2O/Et3N reverse-phase conditions; converts to compound 8, also at pH 7.0
Description: Under nitrogen, a mixture of the crude ethoxyethylidenedioxy compound (18, 0.56 g., 1.11 mmol), 0.2 M NaOAc (3 mL, […]) in methanol (30 mL) was heated to reflux. Monitoring by TLC (5% acetone/CH2Cl2) indicated a complete reaction in 3.5 hours. The methanol was removed in vacuo under a stream of nitrogen, the residue diluted with water (˜50 mL) and extracted with CH2Cl2 (3×). The organic fractions were combined, washed with H2O (2×) and brine (1×), dried over Na2SO4, filtered and concentrated in vacuo to give 0.56 g of the crude 21-ol, 17α-acetate (41) as a foam. Purification of this material via flash chromatography (7.5% acetone/CH2Cl2) followed by trituration with ether/pentane gave 0.32 g of the target compound, 21-OH, 17α-acetate as an off-white solid in […]; m.p.=205-210° C. The NMR indicated this product contains 5.3% of the 17α-OH, 21-OAc (8) isomer as a contaminant. […] This transesterification occurs at an appreciate rate even when the solvent system is buffered at pH 7.0 with phosphoric acid. The purity of the acetate mixture (8 and 41) was ascertained at >99% by normal phase HPLC analysis (Waters Associates μPorasil Silica using CH3CN/CH2Cl2 (40:60) with a flow rate of 2 mL/min at λ=302 nm). […] The presence of the 17α-OH, 21-OAc isomer (8) to the extent of 5.3% could be detected by the appearance of two doublets, one at 4.88 and the other at 5.11, both with J=18.3 Hz.

[2] = tested on: pregnancy (number and condition of conceptuses); assay: Postcoital test; type: in vivo, rat; details: oral; for Postcoital MED100: rat, days 0-3; for postcoital contraceptive activity relative to the standard, in words: days 0-3 of gestation, versus 69B
ovulation [3] = details: Dao, et al.; cited from earlier work
[4] = in vivo
ovulation [5] = assay: Antiovulatory test; type: in vivo, rat; details: for Antiovulatory MED100: oral, rat, single dose at noon on day of proestrus
Description: Antiovulatory Test […] female rats of the Sprague-Dawley strain weighing 200 to 250 g were maintained under standard laboratory conditions, 14 hours of light and 10 hours of darkness each day. Vaginal washings were obtained daily and evaluated microscopically to establish the estrous cycle of each animal. […] Each dose group consisted of eight rats and one group served as the vehicle control. Animals were dosed at noon on the day of proestrus and sacrificed 24 hours later when ova can usually be visualized in the distended ampulla of the oviduct using a dissecting microscope. The oviducts were excised, an incision made in the distended ampulla and the ova teased out in a drop of water on a microscope slide so that the number shed could be counted. Historically, control animals shed between 12 and 14 ova during each estrous cycle.

[6] = tested on: follicular development, ovulation, endometrial maturation; assay: Single oral dose in human subjects (unpublished data); type: in vivo
[7] = target: T1, human isoform A progesterone receptor (Homo sapiens, UniProt P06401); assay: Relative binding affinity, human isoform A progesterone receptor; details: for BINDING AFFINITY Progester, figure in ( ): relative binding affinity of the human isoform A progesterone receptor: Table 2, figure in parentheses
T1 sequence (P06401 1-769 isoform P06401-2): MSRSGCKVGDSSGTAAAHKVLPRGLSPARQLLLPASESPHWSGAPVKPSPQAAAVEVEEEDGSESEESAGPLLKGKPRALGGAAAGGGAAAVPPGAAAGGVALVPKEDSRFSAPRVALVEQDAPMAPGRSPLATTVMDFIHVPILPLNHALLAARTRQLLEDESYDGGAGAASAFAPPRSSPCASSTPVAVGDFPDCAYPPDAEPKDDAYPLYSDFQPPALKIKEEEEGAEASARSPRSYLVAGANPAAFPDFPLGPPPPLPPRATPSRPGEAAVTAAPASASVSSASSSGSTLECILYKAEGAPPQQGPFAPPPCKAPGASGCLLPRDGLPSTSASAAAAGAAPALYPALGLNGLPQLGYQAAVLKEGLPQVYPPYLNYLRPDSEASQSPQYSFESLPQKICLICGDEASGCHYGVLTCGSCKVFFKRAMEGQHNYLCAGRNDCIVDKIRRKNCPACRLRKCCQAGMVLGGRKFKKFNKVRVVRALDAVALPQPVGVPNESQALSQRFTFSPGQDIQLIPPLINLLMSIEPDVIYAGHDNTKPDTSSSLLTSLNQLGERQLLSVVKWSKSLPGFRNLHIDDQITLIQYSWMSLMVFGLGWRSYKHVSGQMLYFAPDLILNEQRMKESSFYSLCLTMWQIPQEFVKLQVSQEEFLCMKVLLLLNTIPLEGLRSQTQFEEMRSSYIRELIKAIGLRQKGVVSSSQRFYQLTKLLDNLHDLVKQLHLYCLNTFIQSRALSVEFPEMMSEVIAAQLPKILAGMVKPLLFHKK

Cushing's syndrome = details: cited from earlier work
[8] = tested on: early stages of pregnancy; details: administered during the early stages of pregnancy; cited from earlier work
[9] = tested on: estrogen-insensitive T47Dco human breast cancer cells; details: Horwitz 1985; cited from earlier work
ovulation [10] = details: Baulieu, et al.; cited from earlier work
implantation [11] = details: guinea pig; cited from earlier work
implantation [12] = details: rat; cited from earlier work
implantation [13] = details: man; cited from earlier work

Question: With `CC(=O)O[C@]1(C(=O)CO)CCC2C3CCC4=CC(=O)CCC4=C3C(c3ccc(N(C)C)cc3)C[C@@]21C` (stereo partly drawn) [Compound 41, 17α-acetoxy-21-hydroxy-11β-[4-(N,N-dimethylamino)phenyl]-19-norpregna-4,9-diene-3,20-dione] as the compound, how does the stability to base [1] read?
Answer: The stability to base was “extremely labile to base”.

Question: Which “Postcoital MED100” value [2] does the source give for `CC(=O)O[C@]1(C(C)=O)CC[C@H]2[C@@H]3CCC4=CC(=O)CCC4=C3[C@@H](c3ccc(N(C)C)cc3)C[C@@]21C` [Compound 69B, 17α-acetoxy-11β-(4-N,N-dimethylaminophenyl)-19-norpregna-4,9-diene-3,20-dione, reference compound] here?
Answer: The value was 2 mg/day.

Question: And the “inhibition of ovulation in the rat” value (ovulation [3])?
Answer: The value was “inhibit ovulation”.

Question: And the “blood levels following oral administration” value [4]?
Answer: Its value is “Higher blood levels”.

Question: What about the “Antiovulatory MED100” value (ovulation [5]) of the same compound?
Answer: Its value is 1 mg.

Question: What about the “effect in human subjects following a single oral dose” value [6] of the same compound?
Answer: Its value is “affect both follicular development and ovulation as well as endometrial maturation”.

Question: And the “BINDING AFFINITY Progester, figure in ( ): relative binding affinity of the human isoform A progesterone receptor” value [7]?
Answer: The value was 234.

Question: With `CC(=O)O[C@]1(C(C)=O)CC[C@H]2[C@@H]3CCC4=CC(=O)CCC4=C3[C@@H](c3ccc(N4CCCCC4)cc3)C[C@@]21C` [Compound 71, 17α-Acetoxy-11β-[4(N-Piperidino)phenyl]-19-norpregna-4,9-diene-3,20-dione] as the compound, how does the “postcoital contraceptive activity relative to the standard, in words” value [2] read?
Answer: The value was “about four times the postcoital contraceptive activity of the standard; also recorded: four times as potent as the standard”.

Question: And the “Postcoital MED100” value [2]?
Answer: Its value is 0.5 mg/day.

Question: What about the “Antiovulatory MED100” value (ovulation [5]) of the same compound?
Answer: The value was greater than 16 mg.

Question: And the “antiovulatory activity relative to the standard” value (ovulation [5]; percent of the activity of 69B)?
Answer: Its value is “about 5%”.

Question: What about the “dose level at which not fully active, antiovulatory” value (ovulation [5]; versus 69B) of the same compound?
Answer: The value was > 16 times the MED100 for the standard.

Question: What about the “BINDING AFFINITY Progester, figure in ( ): relative binding affinity of the human isoform A progesterone receptor” value [7] of the same compound?
Answer: Its value is 203.

Question: With `CC(=O)OCC(=O)[C@@]1(OC(C)=O)CC[C@H]2[C@@H]3CCC4=CC(=O)CCC4=C3[C@@H](c3ccc(C(C)=O)cc3)C[C@@]21C` [Compound 106b, 17α,21-Diacetoxy-11β-(4-acetylphenyl)19-norpregna-4,9-diene-3,20-dione] as the compound, how does the “BINDING AFFINITY Progester, figure in ( ): relative binding affinity of the human isoform A progesterone receptor” value [7] read?
Answer: The value was 172.

Question: For `COCC(=O)[C@@]1(OC)CC[C@H]2[C@@H]3CCC4=CC(=O)CCC4=C3[C@@H](c3ccc(N(C)C)cc3)C[C@@]21C` [Compound 113a, 17α,21-Dimethoxy-11β-[4-(N,N-dimethylamino)phenyl]-19-norpregna-4,9-diene-3,20-dione], which “postcoital contraceptive activity relative to the standard, in words” value [2] is on record?
Answer: The value was “about half as effective as compound 69B”.

Question: And the “binding affinity for the human progesterone receptor (isoform A), in words” value [7]?
Answer: The value was “high binding affinity”.

Question: What about the “BINDING AFFINITY Progester, figure in ( ): relative binding affinity of the human isoform A progesterone receptor” value [7] of the same compound?
Answer: The value was 237.

Question: For `COCC(=O)C1(OC(C)=O)CCC2C3CCC4=CC(=O)CCC4=C3C(c3ccc(N4CCCCC4)cc3)CC21C` (stereo not drawn) [Compound 123a, 17α-Acetoxy-1113-[4-(N-piperidino)phenyl]-21-methoxy-19-norpregna-4,9-diene-3,20-dione], which “BINDING AFFINITY Progester, figure in ( ): relative binding affinity of the human isoform A progesterone receptor” value [7] is on record?
Answer: The value was 140.

Question: What does the source list for `CC#C[C@]1(O)CC[C@H]2[C@@H]3CCC4=CC(=O)CCC4=C3[C@@H](c3ccc(N(C)C)cc3)C[C@@]21C` [mifepristone]?
Answer: treatment of Cushing's syndrome (Cushing's syndrome; Nieman, et al. 1985): successfully used; antiglucocorticoid activity (Cushing's syndrome; in vivo): very significant antiglucocorticoid activity; antiprogestational/contragestative effect [8]: effective antiprogestational/contragestative agent; growth inhibition of T47Dco human breast cancer cells [9]: growth-inhibitory properties; inhibition of ovulation in the rat (ovulation [3]): inhibit ovulation; effect on ovulation in human subjects (ovulation [10]): affect ovulation; prevention of implantation (implantation [11]): prevent implantation; prevention of implantation (implantation [12]): prevent implantation; prevention of implantation (implantation [13]): prevent implantation
